According to US12156880B2, “Heterocyclic RIP1 kinase inhibitors” (Rigel Pharmaceuticals, Inc., priority 2021, dated 2024):

Key:
U937 cells = assay: U937 cell necroptosis assay (TNFa + zVAD, CellTiter-Glo recovery); format: cell-based; conditions: Homo sapiens, U-937, 18 h, TNFa 2 ng/mL + zVAD-fmk, read-out: U937 Zvad TNF CTG Recovery, U937, TNFa + zVAD (IC50)
Procedure, shortened: (§1)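 Human U937 (50K/well, 60 uM zVAD-fmk medium, plated same day) or murine L929 (10K/well, plated 18 h, then 40 uM zVAD-fmk medium) were grown in RPMI with 10% FBS. Both were pretreated with compound for 1 h at 37 °C before TNFa at 2 ng/mL final. Viability was read by CellTiter-Glo luminescence after 18 h.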

RIPK1 = molecular target: T1, RIPK1 (Homo sapiens, UniProt Q13546); assay: RIPK1 ADP-Glo biochemical kinase assay; conditions: read-out: RIPK1 ADP-Glo Kinase (IC50)
T1 sequence (Q13546 1-671): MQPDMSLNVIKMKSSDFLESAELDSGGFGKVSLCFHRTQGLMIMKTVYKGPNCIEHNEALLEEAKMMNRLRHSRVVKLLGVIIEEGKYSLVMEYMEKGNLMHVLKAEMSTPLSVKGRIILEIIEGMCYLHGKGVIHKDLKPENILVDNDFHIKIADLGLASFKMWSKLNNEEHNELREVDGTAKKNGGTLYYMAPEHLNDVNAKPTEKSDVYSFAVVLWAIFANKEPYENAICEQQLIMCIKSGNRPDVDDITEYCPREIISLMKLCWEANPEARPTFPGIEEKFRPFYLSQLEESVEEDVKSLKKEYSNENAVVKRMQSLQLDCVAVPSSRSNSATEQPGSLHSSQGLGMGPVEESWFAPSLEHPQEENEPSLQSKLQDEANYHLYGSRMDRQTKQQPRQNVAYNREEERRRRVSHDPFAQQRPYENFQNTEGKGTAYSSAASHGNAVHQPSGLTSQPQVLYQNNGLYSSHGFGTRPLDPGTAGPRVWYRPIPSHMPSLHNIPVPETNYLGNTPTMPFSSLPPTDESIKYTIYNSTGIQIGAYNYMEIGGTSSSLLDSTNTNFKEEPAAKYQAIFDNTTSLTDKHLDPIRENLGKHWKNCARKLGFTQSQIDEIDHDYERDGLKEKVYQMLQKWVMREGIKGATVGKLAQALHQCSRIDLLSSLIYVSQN
Procedure, shortened: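 RIPK1 at 31 ng/well in Tris pH 7.4 buffer with MgCl2, BSA, DTT and MnCl2, reacted with compounds (duplicate) for 30 min at 30 °C. ADP formed detected by ADP-Glo: 40 min stop/depletion, then 30 min detection reagent at room temperature; luminescence read.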

[1] = Brain penetration: free brain/plasma ratio in in vivo pharmacokinetic studies; conditions: brain and plasma (unbound); in vivo pharmacokinetic studies in rodents; read-out: free brain/plasma ratio (Bu/Pu)
Description: Female C57BL/6 mice are randomly grouped and weighed on Day −1. On the day of the study (Day 0), mice are administered vehicle or test article by oral gavage. Fifteen minutes after oral administration of test agents, each mouse is administered an intraperitoneal (IP) injection of solution containing recombinant human tumor necrosis factor alpha (TNF-a, 25.0 μg) and zVAD-FMK (200 μg). Body temperature is measured at 0 hours (before IP injections) and every hour via rectal probe temperature measuring device. Three (3) hours after IP injections of TNF-a and zVAD/FMK, mice are euthanized by CO2 asphyxiation and blood is collected via cardiac puncture. Serum and plasma are harvested for determination of cytokine and compound levels, respectively. Separate groups of mice (satellite mice) are included for the determination of compound levels in plasma at the time of administration of TNFa/zVAD-FMK. […] Brain penetration may be assessed by evaluating free brain/plasma ratio (Bu/Pu) as measured in vivo pharmacokinetic studies in rodents. […] In this method, the passive membrane permeability (Papp) and the P-gp (P-glycoprotein) substrate efflux potential are determined using a MDCKII-MDR1 cell line as an in vitro model of the effective permeability of a compound through the BBB.

L929 cells = assay: L929 cell necroptosis assay (TNFa + zVAD, CellTiter-Glo recovery); format: cell-based, murine; conditions: Mus musculus, L929, 18 h, TNFa 2 ng/mL + zVAD-fmk, read-out: L929-CTG-recovery, L929, TNFa + zVAD (IC50)
Procedure, shortened: as §1

IC50 (RIPK1) [nM] | Kp,uu (unbound brain/plasma ratio) [1] | SMILES | IC50 (U937 cells) [nM] | IC50 (L929 cells) [nM]
16.4 | 1.7 | Cc1cccc(Cc2cnn(C(=O)N[C@H]3COc4ccc(C#CC5CCOCC5)cc4N(C)C3=O)c2)n1 [I-104, (S)—N-(5-Methyl-4-oxo-7-((tetrahydro-2H-pyran-4-yl)ethynyl)-2,3,4,5-tetrahydrobenzo[b][1,4]oxazepin-3-yl)-4-((6-methylpyridin-2-yl)methyl)-1H-pyrazole-1-carboxamide] | 7.3 | 190
17.2 | 11 | Cc1cccc(Cc2cnn(C(=O)N[C@H]3CCc4ccc(C#CC5(O)COC5)cc4N(C)C3=O)c2)n1 [I-120, (S)—N-(8-((3-Hydroxyoxetan-3-yl)ethynyl)-1-methyl-2-oxo-2,3,4,5-tetrahydro-1H-benzo[b]azepin-3-yl)-4-((6-methylpyridin-2-yl)methyl)-1H-pyrazole-1-carboxamide] | 9.5 | 233
24.2 | – | CN1C(=O)[C@@H](NC(=O)c2cc(Oc3cnn(C)c3)ccn2)COc2ccc(C#CC(C)(C)C)cc21 [I-132, (S)—N-(7-(3,3-dimethylbut-1-yn-1-yl)-5-methyl-4-oxo-2,3,4,5-tetrahydrobenzo[b][1,4]oxazepin-3-yl)-4-((1-methyl-1H-pyrazol-4-yl)oxy)picolinamide] | 4.1 | 71.8
14 | – | CN1C(=O)[C@@H](NC(=O)c2cc(Oc3cnn(C)c3)ccn2)COc2ccc(C#CC3(O)CCC3)cc21 [I-133, (S)—N-(7-((1-hydroxycyclobutyl)ethynyl)-5-methyl-4-oxo-2,3,4,5-tetrahydrobenzo[b][1,4]oxazepin-3-yl)-4-((1-methyl-1H-pyrazol-4-yl)oxy)picolinamide] | 5.2 | 58.2
7.7 | – | CN1C(=O)[C@@H](NC(=O)c2cc(Oc3cnn(C)c3)ccn2)COc2ccc(C#CC3CCOCC3)cc21 [I-136, (S)-4-((1-methyl-1H-pyrazol-4-yl)oxy)-N-(5-methyl-4-oxo-7-((tetrahydro-2H-pyran-4-yl)ethynyl)-2,3,4,5-tetrahydrobenzo[b][1,4]oxazepin-3-yl)picolinamide] | 0.7 | 5.4
11.9 | – | CN1C(=O)[C@@H](NC(=O)c2cc(Cc3cocn3)ccn2)COc2ccc(C#CC(C)(C)O)cc21 [I-137, (S)—N-(7-(3-hydroxy-3-methylbut-1-yn-1-yl)-5-methyl-4-oxo-2,3,4,5-tetrahydrobenzo[b][1,4]oxazepin-3-yl)-4-(oxazol-4-ylmethyl)picolinamide] | 25.5 | 87.4
